According to ChEMBL document CHEMBL2021816, “Synthesis and acrosin inhibitory activity of methyl 5-substituted-1H-benzo[d]imidazol-2-yl carbamate derivatives” (Bioorg Med Chem Lett, 2012):

biological target: Acrosin (Homo sapiens, UniProt P10323); assay: Inhibition of acrosin in human spermatozoa assessed as effect on amidase activity after 3 hrs incubation by spectrophotometry
Sequence (P10323 20-42 limits assumed): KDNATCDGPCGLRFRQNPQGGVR
Sequence (P10323 43-343 limits assumed): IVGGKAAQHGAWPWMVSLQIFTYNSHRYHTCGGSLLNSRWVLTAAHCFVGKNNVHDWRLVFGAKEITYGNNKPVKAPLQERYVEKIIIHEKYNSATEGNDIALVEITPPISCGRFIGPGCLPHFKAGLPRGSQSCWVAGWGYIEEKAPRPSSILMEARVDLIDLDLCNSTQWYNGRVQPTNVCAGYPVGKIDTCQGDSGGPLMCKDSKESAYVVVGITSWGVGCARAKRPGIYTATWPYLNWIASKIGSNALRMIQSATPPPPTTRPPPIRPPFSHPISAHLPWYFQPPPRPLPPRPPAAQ

| IC50 [µM] | SMILES |
| --- | --- |
| 310 | COC(=O)Nc1nc2ccc(S(=O)(=O)NCc3ccccc3F)cc2[nH]1 |
| 2400 | COC(=O)Nc1nc2ccc(S(=O)(=O)NCc3ccc(F)cc3)cc2[nH]1 |
| 5060 | COC(=O)Nc1nc2ccc(S(=O)(=O)NCc3cccc(C)c3)cc2[nH]1 |
| 1030 | COC(=O)Nc1nc2ccc(S(=O)(=O)NCc3ccccc3)cc2[nH]1 |
| 1550 | COC(=O)Nc1nc2ccc(S(=O)(=O)NCc3ccc(F)cc3F)cc2[nH]1 |
| 1590 | COC(=O)Nc1nc2ccc(S(=O)(=O)NCc3ccc(F)c(F)c3)cc2[nH]1 |
| 1810 | COC(=O)Nc1nc2ccc(S(=O)(=O)NCc3cccc(F)c3)cc2[nH]1 |
| 7500 | COC(=O)Nc1nc2ccc(S(=O)(=O)NCc3cccc(OC)c3)cc2[nH]1 |

The next lines start with the compound.

| SMILES | IC50 [µM] |
| --- | --- |
| COC(=O)Nc1nc2ccc(S(=O)(=O)Nc3cc(C)ccc3C)cc2[nH]1 | 8860 |
| COC(=O)Nc1nc2ccc(S(=O)(=O)NCc3ccc(Br)cc3)cc2[nH]1 | 1640 |
| COC(=O)Nc1nc2ccc(S(=O)(=O)NCc3ccccc3Cl)cc2[nH]1 | 5750 |
| COC(=O)Nc1nc2ccc(S(=O)(=O)NCc3ccc(Cl)cc3)cc2[nH]1 | 7520 |
| COC(=O)Nc1nc2ccc(S(=O)(=O)NCc3ccc(Cl)cc3Cl)cc2[nH]1 | 1270 |
| COC(=O)Nc1nc2ccc(S(=O)(=O)NCc3ccc(Cl)c(Cl)c3)cc2[nH]1 | 4020 |
| COC(=O)Nc1nc2ccc(S(=O)(=O)NCc3ccc(OC)cc3)cc2[nH]1 | 3290 |
| COC(=O)Nc1nc2ccc(S(=O)(=O)NCc3ccc(C)cc3)cc2[nH]1 | 3180 |
| COC(=O)Nc1nc2ccc(S(=O)(=O)NCc3ccc(C(F)(F)F)cc3)cc2[nH]1 | 10700 |
| COC(=O)Nc1nc2ccc(S(=O)(=O)NCc3ccccc3OC)cc2[nH]1 | 8420 |
| COC(=O)Nc1nc2ccc(S(=O)(=O)NCc3ccc(OC)c(OC)c3)cc2[nH]1 | 11500 |
| COC(=O)Nc1nc2ccc(S(=O)(=O)NC(C)C)cc2[nH]1 | 470 |
| CCCCNS(=O)(=O)c1ccc2nc(NC(=O)OC)[nH]c2c1 | 1770 |
| CCCCCCNS(=O)(=O)c1ccc2nc(NC(=O)OC)[nH]c2c1 | 1800 |
| COC(=O)Nc1nc2ccc(S(=O)(=O)N(CCC(C)C)CCC(C)C)cc2[nH]1 | 63 |
| COC(=O)Nc1nc2ccc(S(=O)(=O)N(C)Cc3ccccc3)cc2[nH]1 | 1250 |
| O=Cc1cc(-c2ccc(Cl)cc2Cl)on1 | 1700 |
